Experimental data taken from ChEMBL document CHEMBL3217578, “Synthesis of a novel thiophene derivative that induces cancer cell apoptosis through modulation of AKT and MAPK pathways” (Medchemcomm, 2012).
≈ marks a conversion by molar mass, not a printed value. One block for each compound: values may come before it. Calls of active or inactive are those of the source. No cut-off for these calls is given here.

Tests used:
[1] = (§1) Cytotoxicity against mouse Neuro2a cells after 72 hrs by MTT assay; type: functional, cell-based; details: N2a
[2] = Cytotoxicity against human HK2 cells after 72 hrs by MTT assay; type: cell-based; details: HK-2, 72 h
PC-3 = assay: Cytotoxicity against human PC3 cells after 72 hrs by MTT assay; type: functional, cell-based; details: PC-3, 72 h
[3] = Cytotoxicity against human HeLa 229 cells after 72 hrs by MTT assay; type: functional, cell-based; details: HeLa 229, 72 h
[4] = Cytotoxicity against human MG63 cells after 72 hrs by MTT assay; type: functional, cell-based; details: MG-63, 72 h
A-375 = assay: Cytotoxicity against human A375 cells after 72 hrs by MTT assay; type: functional, cell-based; details: A-375, 72 h
[5] = Cell cycle arrest in mouse Neuro2a cells assessed as accumulation at G2/M phase at 4 ug/ml after 72 hrs using propidium iodide staining by flow cytometry analysis (reference value: 9.9%); type: functional, cell-based; details: N2a
Neuro2a [6] = assay: Inhibition of ERK phosphorylation in mouse Neuro2a cells assessed as total protein level at 4 ug/ml after 24 hrs by Western blot analysis relative to beta-actin; type: cell-based
[7] = molecular target: RAC-alpha serine/threonine-protein kinase (Mus musculus) (UniProt P31750); assay: Inhibition of AKT phosphorylation in mouse Neuro2a cells after 24 hrs by Western blot analysis; type: cell-based
[8] = molecular target: RAC-alpha serine/threonine-protein kinase (Mus musculus) (UniProt P31750); assay: Inhibition of AKT phosphorylation in mouse Neuro2a cells assessed as total protein level at 4 ug/ml after 24 hrs by Western blot analysis relative to beta-actin; type: cell-based
[9] = Cell cycle arrest in mouse Neuro2a cells assessed as accumulation at sub-G1 phase at 8 ug/ml after 72 hrs using propidium iodide staining by flow cytometry analysis (reference value: 4.7%); type: functional, cell-based; details: N2a
[10] = Cell cycle arrest in mouse Neuro2a cells assessed as accumulation at G2/M phase at 2 ug/ml after 72 hrs using propidium iodide staining by flow cytometry analysis (reference value: 9.9%); type: functional, cell-based; details: N2a
Neuro2a [11] = assay: Inhibition of JNK phosphorylation in mouse Neuro2a cells at 4 ug/ml after 24 hrs by Western blot analysis relative to beta-actin; type: cell-based
Neuro2a [12] = assay: Inhibition of JNK phosphorylation in mouse Neuro2a cells assessed as total protein level at 4 ug/ml after 24 hrs by Western blot analysis relative to beta-actin; type: cell-based
[13] = Antioxidant activity assessed as ABTS free radical scavenging activity; type: functional; details: TDE = time-dependent effect
Neuro2a [14] = assay: Inhibition of ERK phosphorylation in mouse Neuro2a cells at 2 ug/ml after 24 hrs by Western blot analysis relative to beta-actin; type: cell-based
[15] = Cell cycle arrest in mouse Neuro2a cells assessed as accumulation at G0/G1 phase at 2 ug/ml after 72 hrs using propidium iodide staining by flow cytometry analysis (reference value: 41.6%); type: functional, cell-based; details: N2a
N2a [16] = assay: Induction of apoptosis in mouse Neuro2a cells assessed as reduction of ROS production after 3 hrs by DCF fluorescence assay; type: functional, cell-based
[17] = Cell cycle arrest in mouse Neuro2a cells assessed as accumulation at G0/G1 phase at 8 ug/ml after 72 hrs using propidium iodide staining by flow cytometry analysis (reference value: 41.6%); type: functional, cell-based; details: N2a
[18] = Cell cycle arrest in mouse Neuro2a cells assessed as accumulation at S phase at 8 ug/ml after 72 hrs using propidium iodide staining by flow cytometry analysis (reference value: 48.5%); type: functional, cell-based; details: N2a
[19] = molecular target: T1, MAP kinase p38 (Mus musculus) (UniProt P47811+O08911+Q9WUI1+Q9Z1B7); assay: Inhibition of p38 phosphorylation in mouse Neuro2a cells assessed as total protein level at 8 ug/ml after 24 hrs by Western blot analysis relative to beta-actin; type: cell-based
[20] = molecular target: RAC-alpha serine/threonine-protein kinase (Mus musculus) (UniProt P31750); assay: Inhibition of AKT phosphorylation in mouse Neuro2a cells assessed as total protein level after 24 hrs by Western blot analysis; type: cell-based
Neuro2a [21] = assay: Inhibition of ERK phosphorylation in mouse Neuro2a cells assessed as total protein level at 8 ug/ml after 24 hrs by Western blot analysis relative to beta-actin; type: cell-based
N2a [22] = assay: Induction of apoptosis in mouse Neuro2a cells assessed as activation of caspase-8 using IETD-AFC as substrate by fluorometric assay; type: functional, cell-based
[23] = molecular target: RAC-alpha serine/threonine-protein kinase (Mus musculus) (UniProt P31750); assay: Inhibition of AKT phosphorylation in mouse Neuro2a cells assessed as total protein level at 2 ug/ml after 24 hrs by Western blot analysis relative to beta-actin; type: cell-based
[24] = molecular target: RAC-alpha serine/threonine-protein kinase (Mus musculus) (UniProt P31750); assay: Inhibition of AKT phosphorylation in mouse Neuro2a cells at 2 ug/ml after 24 hrs by Western blot analysis relative to beta-actin; type: cell-based
[25] = Cell cycle arrest in mouse Neuro2a cells assessed as accumulation at G0/G1 phase at 4 ug/ml after 72 hrs using propidium iodide staining by flow cytometry analysis (reference value: 41.6%); type: functional, cell-based; details: N2a
N2a [26] = assay: as §1; type: functional, cell-based
[27] = molecular target: T1, MAP kinase p38 (Mus musculus); assay: Inhibition of p38 phosphorylation in mouse Neuro2a cells assessed as total protein level at 2 ug/ml after 24 hrs by Western blot analysis relative to beta-actin; type: cell-based
N2a [28] = assay: Cytotoxicity against mouse Neuro2a cells at 8 ug/ml after 24 hrs by MTT assay in presence of NAC; type: functional, cell-based
Neuro2a [29] = assay: Inhibition of JNK phosphorylation in mouse Neuro2a cells at 8 ug/ml after 24 hrs by Western blot analysis relative to beta-actin; type: cell-based
[30] = Cell cycle arrest in mouse Neuro2a cells assessed as accumulation at S phase at 4 ug/ml after 72 hrs using propidium iodide staining by flow cytometry analysis (reference value: 48.5%); type: functional, cell-based; details: N2a
Neuro2a [31] = assay: Inhibition of JNK phosphorylation in mouse Neuro2a cells assessed as total protein level at 2 ug/ml after 24 hrs by Western blot analysis relative to beta-actin; type: cell-based
N2a [32] = assay: Induction of apoptosis in mouse Neuro2a cells assessed as activation of caspase-3 at 8 ug/ml using Ac-[…]-AFC as substrate by fluorometric assay relative to control; type: functional
[33] = Cell cycle arrest in mouse Neuro2a cells assessed as accumulation at S phase at 2 ug/ml after 72 hrs using propidium iodide staining by flow cytometry analysis (reference value: 48.5%); type: functional, cell-based; details: N2a
Neuro2a [34] = assay: Inhibition of JNK phosphorylation in mouse Neuro2a cells assessed as total protein level at 2 to 8 ug/ml after 24 hrs by Western blot analysis; type: cell-based
Neuro2a [35] = assay: Inhibition of JNK phosphorylation in mouse Neuro2a cells at 2 ug/ml after 24 hrs by Western blot analysis relative to beta-actin; type: cell-based
Neuro2a [36] = assay: Inhibition of JNK phosphorylation in mouse Neuro2a cells assessed as total protein level at 8 ug/ml after 24 hrs by Western blot analysis relative to beta-actin; type: cell-based
N2a [37] = assay: Induction of apoptosis in mouse Neuro2a cells assessed as DNA fragmentation and nuclear condensation after 24 hrs by TUNEL-DAPI co-staining assay; type: functional, cell-based
[38] = molecular target: RAC-alpha serine/threonine-protein kinase (Mus musculus) (UniProt P31750); assay: Inhibition of AKT phosphorylation in mouse Neuro2a cells at 8 ug/ml after 24 hrs by Western blot analysis relative to beta-actin; type: cell-based
[39] = Cell cycle arrest in mouse Neuro2a cells assessed as accumulation at sub-G1 phase at 4 ug/ml after 72 hrs using propidium iodide staining by flow cytometry analysis (reference value: 4.7%); type: functional, cell-based; details: N2a
[40] = molecular target: RAC-alpha serine/threonine-protein kinase (Mus musculus) (UniProt P31750); assay: Inhibition of AKT phosphorylation in mouse Neuro2a cells at 4 ug/ml after 24 hrs by Western blot analysis relative to beta-actin; type: cell-based
Neuro2a [41] = assay: Inhibition of ERK phosphorylation in mouse Neuro2a cells assessed as total protein level at 2 ug/ml after 24 hrs by Western blot analysis relative to beta-actin; type: cell-based
[42] = Cell cycle arrest in mouse Neuro2a cells assessed as accumulation at G2/M phase at 8 ug/ml after 72 hrs using propidium iodide staining by flow cytometry analysis (reference value: 9.9%); type: functional, cell-based; details: N2a
[43] = molecular target: RAC-alpha serine/threonine-protein kinase (Mus musculus) (UniProt P31750); assay: Inhibition of AKT phosphorylation in mouse Neuro2a cells assessed as total protein level at 8 ug/ml after 24 hrs by Western blot analysis relative to beta-actin; type: cell-based
N2a [44] = assay: Induction of apoptosis in mouse Neuro2a cells assessed as activation of caspase-9 using Ac-LEHD-AFC as substrate by fluorometric assay; type: functional, cell-based
Neuro2a [45] = assay: Inhibition of ERK phosphorylation in mouse Neuro2a cells at 4 ug/ml after 24 hrs by Western blot analysis relative to beta-actin; type: cell-based
[46] = Cell cycle arrest in mouse Neuro2a cells assessed as accumulation at sub-G1 phase at 2 ug/ml after 72 hrs using propidium iodide staining by flow cytometry analysis (reference value: 4.7%); type: functional, cell-based; details: N2a
[47] = molecular target: T1, MAP kinase p38 (Mus musculus); assay: Inhibition of p38 phosphorylation in mouse Neuro2a cells assessed as total protein level at 4 ug/ml after 24 hrs by Western blot analysis relative to beta-actin; type: cell-based
N2a [48] = assay: Induction of apoptosis in mouse Neuro2a cells assessed as activation of caspase-9 at 4 ug/ml using Ac-LEHD-AFC as substrate by fluorometric assay relative to control; type: functional
[49] = molecular target: T1, MAP kinase p38 (Mus musculus); assay: Inhibition of p38 phosphorylation in mouse Neuro2a cells at 2 to 8 ug/ml after 24 hrs by Western blot analysis; type: cell-based
[50] = Cell cycle arrest in mouse Neuro2a cells assessed as accumulation at sub-G1 phase after 72 hrs using propidium iodide staining by flow cytometry analysis; type: functional, cell-based; details: N2a
Neuro2a [51] = assay: Inhibition of ERK phosphorylation in mouse Neuro2a cells at 8 ug/ml after 24 hrs by Western blot analysis relative to beta-actin; type: cell-based
N2a [52] = assay: Induction of apoptosis in mouse Neuro2a cells assessed as activation of caspase-3 using Ac-DEVD-AFC as substrate by fluorometric assay; type: functional, cell-based

Chain of RAC-alpha serine/threonine-protein kinase (Mus musculus) (P31750 whole entry): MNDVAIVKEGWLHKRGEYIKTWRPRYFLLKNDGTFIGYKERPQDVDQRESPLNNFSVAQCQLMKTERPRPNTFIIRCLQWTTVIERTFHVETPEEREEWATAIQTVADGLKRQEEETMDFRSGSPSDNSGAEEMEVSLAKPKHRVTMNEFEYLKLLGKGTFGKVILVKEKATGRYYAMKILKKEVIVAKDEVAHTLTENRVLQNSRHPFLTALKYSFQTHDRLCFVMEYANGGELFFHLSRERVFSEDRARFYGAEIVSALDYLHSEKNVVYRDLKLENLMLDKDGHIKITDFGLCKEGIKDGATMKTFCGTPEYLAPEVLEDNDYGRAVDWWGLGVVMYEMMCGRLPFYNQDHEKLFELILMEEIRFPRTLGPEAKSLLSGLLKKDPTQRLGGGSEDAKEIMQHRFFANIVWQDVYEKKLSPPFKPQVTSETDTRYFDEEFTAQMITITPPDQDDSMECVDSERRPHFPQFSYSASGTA

SMILES: O=C(CCC(=O)c1cccs1)c1cccs1
- IC50 [1]: 343 µg/mL (≈ 1370 µM)
- IC50 [2]: > 400 µg/mL
- IC50 (PC-3): > 400 µg/mL
- IC50 [3]: > 400 µg/mL
- IC50 [4]: 366 µg/mL (≈ 1460 µM)
- IC50 (A-375): 115 µg/mL (≈ 459 µM)

- inhibition [7]: Dose-dependent effect
- fold change (FC) [8]: 0.7
- fold change (FC) [19]: 1.7
- inhibition [20]: Dose-dependent effect
- fold change (FC) [23]: 0.8
- fold change (FC) [24]: 0.8
- fold change (FC) [27]: 1.2
- fold change (FC) [38]: 0.1
- fold change (FC) [40]: 0.3
- fold change (FC) [43]: 0.4
- fold change (FC) [47]: 1.6
- inhibition [49]: inactive
SMILES: Oc1ccc(-n2c(-c3cccs3)ccc2-c2cccs2)cc1
- Activity [5]: 10.5%
- fold change (FC) (Neuro2a [6]): 0.6
- Activity [9]: 26.3%
- Activity [10]: 11.6%
- fold change (FC) (Neuro2a [11]): 1.6
- fold change (FC) (Neuro2a [12]): 1
- Activity [13]: tde
- fold change (FC) (Neuro2a [14]): 0
- Activity [15]: 39.9%
- Activity (N2a [16]): Dose-dependent effect
- Activity [17]: 44.4%
- Activity [18]: 38.9%
- fold change (FC) (Neuro2a [21]): 0.6
- Activity (N2a [22]): Dose-dependent effect
- Activity [25]: 46.9%
- IC50 [1]: 2.6 µg/mL (≈ 8.04 µM)
- growth inhibition (GI) (N2a [26]): Dose-dependent effect
- IC50 [2]: 73.4 µg/mL (≈ 227 µM)
- growth inhibition (GI) (N2a [28]): Active
- fold change (FC) (Neuro2a [29]): 2.1
- IC50 (PC-3): 51.3 µg/mL (≈ 159 µM)
- Activity [30]: 42.6%
- fold change (FC) (Neuro2a [31]): 1
- fold change (FC) (N2a [32]): 1.5
- Activity [33]: 48.5%
- inhibition (Neuro2a [34]): inactive
- fold change (FC) (Neuro2a [35]): 0.9
- fold change (FC) (Neuro2a [36]): 0.9
- Activity (N2a [37]): Dose-dependent effect
- IC50 [3]: 36.4 µg/mL (≈ 113 µM)
- Activity [39]: 19.2%
- fold change (FC) (Neuro2a [41]): 1
- Activity [42]: 15.7%
- Activity (N2a [44]): Dose-dependent effect
- fold change (FC) (Neuro2a [45]): 0
- Activity [46]: 9.1%
- fold change (FC) (N2a [48]): 1.4
- Activity [50]: Dose-dependent effect
- fold change (FC) (Neuro2a [51]): 0
- IC50 [4]: 39.6 µg/mL (≈ 122 µM)
- IC50 (A-375): 27.6 µg/mL (≈ 85.3 µM)
- Activity (N2a [52]): Dose-dependent effect
